Laboratory results published in publication PMC3694096, “Development of Novel In Vivo Chemical Probes to Address CNS Protein Kinase Involvement in Synaptic Dysfunction” (PLoS ONE, 2013).

Tests used:
Flt3(D835Y) = target: T1, Flt3(D835Y) (Homo sapiens, UniProt P36888, D835Y); experiment: Kinome profiler screen; type: biochemical; conditions: at 20,000 nM inhibitor; kinase activity remaining
T1 construct: purchased Millipore KinaseProfiler

BTK(R28H) = target: T2, BTK(R28H) (Homo sapiens, UniProt Q06187, R28H); experiment: Kinome profiler screen; type: biochemical; conditions: at 20,000 nM inhibitor; kinase activity remaining
T2 construct: purchased Millipore KinaseProfiler

Plk3 = target: T3, Plk3 (Homo sapiens, UniProt Q9H4B4); experiment: Kinome profiler screen; type: biochemical; conditions: at 20,000 nM inhibitor; kinase activity remaining
T3 construct: purchased Millipore KinaseProfiler

IR, activated = target: T4, IR, activated (Homo sapiens, UniProt P06213); experiment: Kinome profiler screen; type: biochemical; conditions: at 20,000 nM inhibitor; kinase activity remaining
T4 construct: purchased Millipore KinaseProfiler

NEK7 = target: T5, NEK7 (Homo sapiens, UniProt Q8TDX7); experiment: Kinome profiler screen; type: biochemical; conditions: at 20,000 nM inhibitor; kinase activity remaining
T5 construct: purchased Millipore KinaseProfiler

MRCKα = target: T6, MRCKα (Homo sapiens, UniProt Q5VT25); experiment: Kinome profiler screen; type: biochemical; conditions: at 20,000 nM inhibitor; kinase activity remaining
T6 construct: purchased Millipore KinaseProfiler

[1] = target: T7, PI3 Kinase (p110 β/p85α)(m) (Mus musculus, UniProt Q8BTI9); experiment: Kinome profiler screen; type: biochemical; conditions: at 20,000 nM inhibitor; kinase activity remaining
T7 construct: purchased Millipore KinaseProfiler

Ret = target: T8, Ret (Homo sapiens, UniProt P07949); experiment: Kinome profiler screen; type: biochemical; conditions: at 20,000 nM inhibitor; kinase activity remaining
T8 construct: purchased Millipore KinaseProfiler

MSK2 = target: T9, MSK2 (Homo sapiens, UniProt O75676); experiment: Kinome profiler screen; type: biochemical; conditions: at 20,000 nM inhibitor; kinase activity remaining
T9 construct: purchased Millipore KinaseProfiler

EphB4 = target: T10, EphB4 (Homo sapiens, UniProt P54760); experiment: Kinome profiler screen; type: biochemical; conditions: at 20,000 nM inhibitor; kinase activity remaining
T10 construct: purchased Millipore KinaseProfiler

[2] = target: T11, PI3 Kinase (p110α (E545K)/p85α)(m) (Mus musculus, UniProt P42337, E545K); experiment: Kinome profiler screen; type: biochemical; conditions: at 20,000 nM inhibitor; kinase activity remaining
T11 construct: purchased Millipore KinaseProfiler

Abl(m) = target: T12, Abl(m) (Mus musculus, UniProt P00520); experiment: Kinome profiler screen; type: biochemical; conditions: at 20,000 nM inhibitor; kinase activity remaining
T12 construct: purchased Millipore KinaseProfiler

SRPK2 = target: T13, SRPK2 (Homo sapiens, UniProt P78362); experiment: Kinome profiler screen; type: biochemical; conditions: at 20,000 nM inhibitor; kinase activity remaining
T13 construct: purchased Millipore KinaseProfiler

[3] = system: CA3-CA1 long-term potentiation; experiment: LTP in Aβ42-treated hippocampal brain slices; set-up: species or system mice; conditions: 10 µM compound, 200 nM Aβ42
IR = target: T14, IR (Homo sapiens, UniProt P06213); experiment: Kinome profiler screen; type: biochemical; conditions: at 20,000 nM inhibitor; kinase activity remaining
T14 construct: purchased Millipore KinaseProfiler

Fms(Y969C) = target: T15, Fms(Y969C) (Homo sapiens, UniProt P07333, Y969C); experiment: Kinome profiler screen; type: biochemical; conditions: at 20,000 nM inhibitor; kinase activity remaining
T15 construct: purchased Millipore KinaseProfiler

MAPK2(m) = target: T16, MAPK2(m) (Mus musculus, UniProt P63085); experiment: Kinome profiler screen; type: biochemical; conditions: at 20,000 nM inhibitor; kinase activity remaining
T16 construct: purchased Millipore KinaseProfiler

FGFR1(V561M) = target: T17, FGFR1(V561M) (Homo sapiens, UniProt P11362, V561M); experiment: Kinome profiler screen; type: biochemical; conditions: at 20,000 nM inhibitor; kinase activity remaining
T17 construct: purchased Millipore KinaseProfiler

SGK2 = target: T18, SGK2 (Homo sapiens, UniProt Q9HBY8); experiment: Kinome profiler screen; type: biochemical; conditions: at 20,000 nM inhibitor; kinase activity remaining
T18 construct: purchased Millipore KinaseProfiler

SIK = target: T19, SIK (Homo sapiens, UniProt P57059); experiment: Kinome profiler screen; type: biochemical; conditions: at 20,000 nM inhibitor; kinase activity remaining
T19 construct: purchased Millipore KinaseProfiler

DAPK1 = target: T20, DAPK1 (Homo sapiens, UniProt P53355); experiment: Kinome profiler screen; type: biochemical; conditions: at 20,000 nM inhibitor; kinase activity remaining
T20 construct: purchased Millipore KinaseProfiler

CDK1/cyclinB = target: T21, CDK1/cyclinB (Homo sapiens, UniProt P06493); experiment: Kinome profiler screen; type: biochemical; conditions: at 20,000 nM inhibitor; kinase activity remaining
T21 construct: purchased Millipore KinaseProfiler

FAK = target: T22, FAK (Homo sapiens, UniProt Q05397); experiment: Kinome profiler screen; type: biochemical; conditions: at 20,000 nM inhibitor; kinase activity remaining
T22 construct: purchased Millipore KinaseProfiler

ROCK-I = target: T23, ROCK-I (Homo sapiens, UniProt Q13464); experiment: Kinome profiler screen; type: biochemical; conditions: at 20,000 nM inhibitor; kinase activity remaining
T23 construct: purchased Millipore KinaseProfiler

Tie2(Y897S) = target: T24, Tie2(Y897S) (Homo sapiens, UniProt Q02763, Y897S); experiment: Kinome profiler screen; type: biochemical; conditions: at 20,000 nM inhibitor; kinase activity remaining
T24 construct: purchased Millipore KinaseProfiler

LIMK1 = target: T25, LIMK1 (Homo sapiens, UniProt P53667); experiment: Kinome profiler screen; type: biochemical; conditions: at 20,000 nM inhibitor; kinase activity remaining
T25 construct: purchased Millipore KinaseProfiler

JAK2 = target: T26, JAK2 (Homo sapiens, UniProt O60674); experiment: Kinome profiler screen; type: biochemical; conditions: at 20,000 nM inhibitor; kinase activity remaining
T26 construct: purchased Millipore KinaseProfiler

PKCι = target: T27, PKCι (Homo sapiens, UniProt P41743); experiment: Kinome profiler screen; type: biochemical; conditions: at 20,000 nM inhibitor; kinase activity remaining
T27 construct: purchased Millipore KinaseProfiler

DRAK1 = target: T28, DRAK1 (Homo sapiens, UniProt Q9UEE5); experiment: Kinome profiler screen; type: biochemical; conditions: at 20,000 nM inhibitor; kinase activity remaining
T28 construct: purchased Millipore KinaseProfiler

EGFR = target: T29, EGFR (Homo sapiens, UniProt P00533); experiment: Kinome profiler screen; type: biochemical; conditions: at 20,000 nM inhibitor; kinase activity remaining
T29 construct: purchased Millipore KinaseProfiler

p70S6K = target: T30, p70S6K (Homo sapiens, UniProt P23443); experiment: Kinome profiler screen; type: biochemical; conditions: at 20,000 nM inhibitor; kinase activity remaining
T30 construct: purchased Millipore KinaseProfiler

Chemical stability = type: physicochemical
Description: Aqueous solubility (logS) and chemical stability were determined as previously described. Briefly, solutions for aqueous solubility (log S) determination were made by gravimetric methods using a Sartorius AG (Germany) BP 211 D analytical balance. Dry borosilicate capillary tubes (Büchi, Switzerland) were weighed and various amounts of compound (ranging from 1.2–1.5 mg) or the hydrochloride hydrate form (ranging from 10–20 mg) were added to the tared tubes, then water added to create solutions ranging in concentrations from […]. Tubes containing the samples were mixed to ensure wetting and incubated at 37°C for 24 h. Aliquots were collected from each tube, centrifuged at 12,000 g-min, and analyzed by HPLC. Concentrations were calculated using area under the peak (260 nm) at the appropriate retention time relative to a standard curve obtained from serial dilutions of each purified compound. […]. The co-solvent was methanol, experimental pH range was 1.7–10.0, temperature was 22±2°C, ionic strength was 0.15 M KCl. Five titrations were used to calculate the pKa using the Yasuda-Shedlovsky technique. […].

PKCα = target: T31, PKCα (Homo sapiens, UniProt P17252); experiment: Kinome profiler screen; type: biochemical; conditions: at 20,000 nM inhibitor; kinase activity remaining
T31 construct: purchased Millipore KinaseProfiler

WNK3 = target: T32, WNK3 (Homo sapiens, UniProt Q9BYP7); experiment: Kinome profiler screen; type: biochemical; conditions: at 20,000 nM inhibitor; kinase activity remaining
T32 construct: purchased Millipore KinaseProfiler

NEK6 = target: T33, NEK6 (Homo sapiens, UniProt Q9HC98); experiment: Kinome profiler screen; type: biochemical; conditions: at 20,000 nM inhibitor; kinase activity remaining
T33 construct: purchased Millipore KinaseProfiler

reference memory = experiment: 2-day radial arm water maze (RAWM), Aβ42-infused mice; type: in vivo, C57BL/6J mice; conditions: 5 mg/Kg i.p.
CaMKI = target: T34, CaMKI (Homo sapiens, UniProt Q14012); experiment: Kinome profiler screen; type: biochemical; conditions: at 20,000 nM inhibitor; kinase activity remaining
T34 construct: purchased Millipore KinaseProfiler

T33 sequence (Q9HC98 whole entry): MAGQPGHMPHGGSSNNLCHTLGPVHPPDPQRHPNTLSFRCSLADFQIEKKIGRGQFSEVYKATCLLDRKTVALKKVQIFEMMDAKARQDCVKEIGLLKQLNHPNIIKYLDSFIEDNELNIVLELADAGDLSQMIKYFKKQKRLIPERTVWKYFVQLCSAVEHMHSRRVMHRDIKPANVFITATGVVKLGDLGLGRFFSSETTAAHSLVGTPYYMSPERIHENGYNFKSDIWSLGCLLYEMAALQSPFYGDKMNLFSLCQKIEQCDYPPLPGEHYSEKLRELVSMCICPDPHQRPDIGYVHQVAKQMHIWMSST
T29 sequence (P00533 25-1210): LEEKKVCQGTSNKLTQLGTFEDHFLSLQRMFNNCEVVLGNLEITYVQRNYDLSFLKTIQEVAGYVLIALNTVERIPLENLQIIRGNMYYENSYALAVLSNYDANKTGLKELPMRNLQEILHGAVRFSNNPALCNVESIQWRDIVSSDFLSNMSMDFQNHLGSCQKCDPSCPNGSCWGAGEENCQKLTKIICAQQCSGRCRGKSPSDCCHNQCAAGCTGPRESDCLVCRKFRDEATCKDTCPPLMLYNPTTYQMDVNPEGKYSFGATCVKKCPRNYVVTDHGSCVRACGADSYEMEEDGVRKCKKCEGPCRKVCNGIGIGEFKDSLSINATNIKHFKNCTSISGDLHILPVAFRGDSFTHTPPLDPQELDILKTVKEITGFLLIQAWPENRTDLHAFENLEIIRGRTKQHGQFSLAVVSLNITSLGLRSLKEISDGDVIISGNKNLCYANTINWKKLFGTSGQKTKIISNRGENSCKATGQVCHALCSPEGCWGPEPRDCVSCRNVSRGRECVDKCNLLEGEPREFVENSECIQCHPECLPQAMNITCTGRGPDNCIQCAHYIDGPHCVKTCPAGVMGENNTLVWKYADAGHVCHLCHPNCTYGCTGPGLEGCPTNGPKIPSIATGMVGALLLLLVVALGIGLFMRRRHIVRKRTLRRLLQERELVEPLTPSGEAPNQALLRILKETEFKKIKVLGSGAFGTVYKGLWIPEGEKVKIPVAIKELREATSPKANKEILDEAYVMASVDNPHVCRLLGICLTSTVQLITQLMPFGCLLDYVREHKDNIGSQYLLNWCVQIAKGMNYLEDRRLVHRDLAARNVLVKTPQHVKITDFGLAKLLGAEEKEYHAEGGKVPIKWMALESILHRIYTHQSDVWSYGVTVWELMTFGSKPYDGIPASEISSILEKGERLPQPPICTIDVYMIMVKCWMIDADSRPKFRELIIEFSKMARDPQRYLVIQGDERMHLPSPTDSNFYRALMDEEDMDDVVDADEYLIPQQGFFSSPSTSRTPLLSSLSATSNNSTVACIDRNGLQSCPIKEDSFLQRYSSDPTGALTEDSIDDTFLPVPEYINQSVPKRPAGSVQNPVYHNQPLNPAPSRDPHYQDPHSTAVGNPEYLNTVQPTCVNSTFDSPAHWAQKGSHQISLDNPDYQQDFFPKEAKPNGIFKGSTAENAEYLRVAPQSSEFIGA
T25 sequence (P53667 whole entry): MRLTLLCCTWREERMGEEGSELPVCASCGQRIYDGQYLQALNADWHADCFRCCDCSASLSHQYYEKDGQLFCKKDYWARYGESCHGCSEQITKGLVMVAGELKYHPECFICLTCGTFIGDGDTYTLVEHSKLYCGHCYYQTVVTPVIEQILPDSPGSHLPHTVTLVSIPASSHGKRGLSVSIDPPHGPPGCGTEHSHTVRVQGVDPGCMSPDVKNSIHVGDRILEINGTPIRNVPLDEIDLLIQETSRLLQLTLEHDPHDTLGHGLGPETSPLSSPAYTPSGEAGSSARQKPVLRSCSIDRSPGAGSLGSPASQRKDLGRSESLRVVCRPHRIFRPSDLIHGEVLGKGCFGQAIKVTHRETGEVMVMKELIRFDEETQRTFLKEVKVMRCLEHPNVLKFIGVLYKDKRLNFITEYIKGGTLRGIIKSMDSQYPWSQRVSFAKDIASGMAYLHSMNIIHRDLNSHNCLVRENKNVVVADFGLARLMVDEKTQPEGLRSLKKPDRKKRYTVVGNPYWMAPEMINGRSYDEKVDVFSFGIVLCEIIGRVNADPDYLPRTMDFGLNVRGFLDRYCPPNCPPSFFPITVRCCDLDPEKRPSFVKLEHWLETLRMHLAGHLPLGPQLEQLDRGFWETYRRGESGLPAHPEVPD
T5 sequence (Q8TDX7 whole entry): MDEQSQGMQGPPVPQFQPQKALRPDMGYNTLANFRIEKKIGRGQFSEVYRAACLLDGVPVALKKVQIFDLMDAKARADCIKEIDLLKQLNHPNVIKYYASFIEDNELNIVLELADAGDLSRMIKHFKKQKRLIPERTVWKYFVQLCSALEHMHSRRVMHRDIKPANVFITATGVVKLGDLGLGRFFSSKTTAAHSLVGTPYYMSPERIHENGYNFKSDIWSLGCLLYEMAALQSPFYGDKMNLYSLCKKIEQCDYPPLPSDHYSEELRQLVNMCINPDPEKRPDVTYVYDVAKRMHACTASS
T19 sequence (P57059 whole entry): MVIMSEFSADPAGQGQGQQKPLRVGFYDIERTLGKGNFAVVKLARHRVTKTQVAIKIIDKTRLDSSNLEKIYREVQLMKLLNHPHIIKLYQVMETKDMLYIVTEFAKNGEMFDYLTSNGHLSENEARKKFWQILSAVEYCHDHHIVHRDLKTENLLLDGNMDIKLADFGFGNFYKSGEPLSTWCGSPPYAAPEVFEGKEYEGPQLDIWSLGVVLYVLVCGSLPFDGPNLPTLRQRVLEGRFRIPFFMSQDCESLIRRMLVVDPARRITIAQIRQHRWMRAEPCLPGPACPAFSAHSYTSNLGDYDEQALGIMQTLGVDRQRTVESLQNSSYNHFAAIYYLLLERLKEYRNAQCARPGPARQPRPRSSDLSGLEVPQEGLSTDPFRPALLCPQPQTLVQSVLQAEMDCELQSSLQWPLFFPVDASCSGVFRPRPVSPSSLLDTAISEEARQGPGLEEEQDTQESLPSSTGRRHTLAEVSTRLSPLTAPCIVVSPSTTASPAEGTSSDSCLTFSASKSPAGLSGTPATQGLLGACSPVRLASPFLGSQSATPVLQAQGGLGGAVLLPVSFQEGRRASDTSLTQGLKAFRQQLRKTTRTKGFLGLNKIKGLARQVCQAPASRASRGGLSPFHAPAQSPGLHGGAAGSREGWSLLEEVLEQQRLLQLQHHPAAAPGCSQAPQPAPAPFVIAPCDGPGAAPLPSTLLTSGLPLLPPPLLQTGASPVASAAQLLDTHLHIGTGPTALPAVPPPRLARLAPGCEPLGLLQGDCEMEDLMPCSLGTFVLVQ
T24 sequence (Q02763 23-1124 Y897S): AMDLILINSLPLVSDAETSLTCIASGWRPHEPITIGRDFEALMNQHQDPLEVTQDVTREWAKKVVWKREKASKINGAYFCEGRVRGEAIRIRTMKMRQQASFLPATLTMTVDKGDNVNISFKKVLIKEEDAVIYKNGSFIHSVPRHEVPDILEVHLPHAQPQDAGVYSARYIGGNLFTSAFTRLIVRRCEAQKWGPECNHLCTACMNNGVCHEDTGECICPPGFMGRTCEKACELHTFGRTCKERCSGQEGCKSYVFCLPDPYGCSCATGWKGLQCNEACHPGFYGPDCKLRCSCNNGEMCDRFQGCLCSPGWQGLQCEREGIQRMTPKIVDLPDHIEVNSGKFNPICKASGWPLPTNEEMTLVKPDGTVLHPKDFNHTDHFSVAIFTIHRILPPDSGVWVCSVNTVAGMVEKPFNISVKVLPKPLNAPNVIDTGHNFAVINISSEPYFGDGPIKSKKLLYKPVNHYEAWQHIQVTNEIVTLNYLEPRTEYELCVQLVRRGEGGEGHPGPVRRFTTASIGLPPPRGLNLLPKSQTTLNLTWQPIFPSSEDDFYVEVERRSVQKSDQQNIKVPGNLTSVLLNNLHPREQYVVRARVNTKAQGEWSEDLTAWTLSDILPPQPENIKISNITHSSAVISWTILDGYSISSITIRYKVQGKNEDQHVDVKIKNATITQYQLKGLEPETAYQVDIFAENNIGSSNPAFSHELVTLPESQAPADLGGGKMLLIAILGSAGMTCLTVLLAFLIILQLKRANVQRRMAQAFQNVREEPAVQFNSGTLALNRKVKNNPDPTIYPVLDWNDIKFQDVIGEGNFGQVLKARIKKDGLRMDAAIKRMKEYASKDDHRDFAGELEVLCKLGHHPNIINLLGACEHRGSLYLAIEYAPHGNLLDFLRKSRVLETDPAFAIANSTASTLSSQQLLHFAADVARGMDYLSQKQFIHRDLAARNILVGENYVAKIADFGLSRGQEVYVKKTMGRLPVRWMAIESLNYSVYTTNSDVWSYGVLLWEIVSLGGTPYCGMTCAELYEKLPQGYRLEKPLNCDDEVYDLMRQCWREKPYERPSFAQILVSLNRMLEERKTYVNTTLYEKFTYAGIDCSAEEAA
T16 sequence (P63085 2-358): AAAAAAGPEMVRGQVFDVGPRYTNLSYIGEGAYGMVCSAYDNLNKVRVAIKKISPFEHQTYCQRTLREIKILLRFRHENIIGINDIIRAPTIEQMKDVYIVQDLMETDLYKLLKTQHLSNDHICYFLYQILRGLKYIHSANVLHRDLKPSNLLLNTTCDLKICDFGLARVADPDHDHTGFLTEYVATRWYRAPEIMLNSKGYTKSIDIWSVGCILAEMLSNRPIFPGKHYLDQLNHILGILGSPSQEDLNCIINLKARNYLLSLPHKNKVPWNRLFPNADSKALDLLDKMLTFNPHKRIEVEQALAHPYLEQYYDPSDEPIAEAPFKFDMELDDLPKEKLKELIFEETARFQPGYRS

Structure (SMILES)	activity at 20 µM (Flt3(D835Y)) [%]	activity at 20 µM (BTK(R28H)) [%]	activity at 20 µM (Plk3) [%]	activity at 20 µM (IR, activated) [%]	activity at 20 µM (NEK7) [%]	activity at 20 µM (MRCKα) [%]	activity at 20 µM [1] [%]	activity at 20 µM (Ret) [%]	activity at 20 µM (MSK2) [%]	activity at 20 µM (EphB4) [%]	activity at 20 µM [2] [%]	activity at 20 µM (Abl(m)) [%]	activity at 20 µM (SRPK2) [%]	LTP deficit in Aβ42-treated slices [3]	activity at 20 µM (IR) [%]	activity at 20 µM (Fms(Y969C)) [%]	activity at 20 µM (MAPK2(m)) [%]	activity at 20 µM (FGFR1(V561M)) [%]	activity at 20 µM (SGK2) [%]	activity at 20 µM (SIK) [%]	also measured
CN(C)c1cc(-c2ccncc2)c(-c2ccc3ccccc3c2)nn1 [MW108, N, N-dimethyl-6-(naphthalen-2-yl)-5-(pyridin-4-yl)pyridazin-3-amine]	90	101	103	103	108	107	99	94	91	54	99	89	95	ameliorated the LTP deficit	100	100	109	90	92	91	activity at 20 µM (DAPK1): 92%; activity at 20 µM (CDK1/cyclinB): 90%; activity at 20 µM (FAK): 95%; activity at 20 µM (ROCK-I): 89%; activity at 20 µM (Tie2(Y897S)): 95%; activity at 20 µM (LIMK1): 106%; activity at 20 µM (JAK2): 98%; activity at 20 µM (PKCι): 92%; activity at 20 µM (DRAK1): 86%; activity at 20 µM (EGFR): 79%; activity at 20 µM (p70S6K): 92%; Chemical Stability (37ºC; 24 hrs) (Chemical stability; 24 h, 0.0015 M): stable in neutral, base (pH 13), acid (pH 2); activity at 20 µM (PKCα): 92%; activity at 20 µM (WNK3): 91%; activity at 20 µM (NEK6): 103%; reference memory deficit, RAWM (reference memory): ameliorated the reference memory deficit; activity at 20 µM (CaMKI): 101%
CN(C)c1cc(-c2ccncc2)c(-c2cccc3ccccc23)nn1 [MW181, N,N-dimethyl-6-(naphthalen-1-yl)-5-(pyridin-4-yl)pyridazin-3-amine]	100	96	92	100	102	103	101	118	99	100	99	88	109	ameliorated the LTP deficit	112	91	106	93	102	92	activity at 20 µM (DAPK1): 99%; activity at 20 µM (CDK1/cyclinB): 113%; activity at 20 µM (FAK): 102%; activity at 20 µM (ROCK-I): 97%; activity at 20 µM (Tie2(Y897S)): 95%; activity at 20 µM (LIMK1): 95%; activity at 20 µM (JAK2): 111%; activity at 20 µM (PKCι): 82%; activity at 20 µM (DRAK1): 113%; activity at 20 µM (EGFR): 103%; activity at 20 µM (p70S6K): 94%; Chemical Stability (37ºC; 24 hrs) (Chemical stability; neutral, base (pH 13), acid (pH 2)): stable in neutral, base (pH 13), acid (pH 2); activity at 20 µM (PKCα): 86%; activity at 20 µM (WNK3): 89%; activity at 20 µM (NEK6): 92%; reference memory deficit, RAWM (reference memory): ameliorated the reference memory deficit; activity at 20 µM (CaMKI): 101%
